Source: US5336757A, “Antibacterial peptide and methods of use” (Harbor Branch Oceanographic Institution, Inc., priority 1992, dated 1994)
In brackets after ≈: the same amount, converted by molar mass. Bridge positions count the residues as written; N and C are the ends. Square brackets hold non-standard residues; d marks the D form. Peptide text beside a SMILES is read from it. * marks the point of attachment. Phe(4-Br) = N[C@@H](Cc1ccc(Br)cc1)C(=O)O; Ile(3-Me) = CCC(C)(C)[C@H](N)C(=O)O; Cya = N[C@@H](CS(=O)(=O)O)C(=O)O; NMeQ = CN[C@@H](CCC(N)=O)C(=O)O; Tle = CC(C)(C)[C@H](N)C(=O)O; For = O=C*

Tests used:
[1] = test system: A549 human lung carcinoma cells; conditions: 72 h
Procedure: P388 murine leukemia cells obtained from Dr. J. Mayo, National Cancer Institute, Bethesda, Md., and A549 cells were obtained from the American Type Culture Collection, Rockville, Md. The P388 cells were maintained in Roswell Park Memorial Institute medium 1640 (RPMI-1640) supplemented with 10% horse serum and cultured in plastic tissue culture flasks and kept in an incubator at 37° C. in humidified air containing 5% CO2. The A549 cells were similarly maintained in RPMI-1640 but supplemented with 10% fetal bovine serum. Antibiotic-free stock cultures of P388 and A549 cells were subcultured to 10^5 cells/ml by dilutions in fresh growth medium at 2 to 5 day intervals. […]
To quantitate the effects of polydiscamide A or its analogs on cell proliferation, 75 μl warm growth medium containing 5 mg/ml MTT was added to each well. […] To spectrophotometrically quantitate formation of reduced formazan, plates were centrifuged (900 g, 5 minutes), culture fluids were removed by aspiration, and 200 μl of acidified isopropanol (2 ml concentrated HCl/L isopropanol) added per well. The absorbance of the resulting solutions was measured at 570 nm with a plate reader (MR700 Microplate Reader, Dynatech Laboratories, Chantilly, Va.).

[2] = test system: P388 murine leukemia cells; conditions: 48 h
Procedure: Polydiscamide A was tested for toxicity against P388 murine leukemia cells and A549 human lung carcinoma cells.
The P388 cells were maintained in Roswell Park Memorial Institute medium 1640 (RPMI-1640) supplemented with 10% horse serum and cultured in plastic tissue culture flasks and kept in an incubator at 37° C. in humidified air containing 5% CO2. The A549 cells were similarly maintained in RPMI-1640 but supplemented with 10% fetal bovine serum. Antibiotic-free stock cultures of P388 and A549 cells were subcultured to 10^5 cells/ml by dilutions in fresh growth medium at 2 to 5 day intervals. […]
To quantitate the effects of polydiscamide A or its analogs on cell proliferation, 75 μl warm growth medium containing 5 mg/ml MTT was added to each well. […] To spectrophotometrically quantitate formation of reduced formazan, plates were centrifuged (900 g, 5 minutes), culture fluids were removed by aspiration, and 200 μl of acidified isopropanol (2 ml concentrated HCl/L isopropanol) added per well. The absorbance of the resulting solutions was measured at 570 nm with a plate reader (MR700 Microplate Reader, Dynatech Laboratories, Chantilly, Va.). […]

Bacillus subtilis = assay type: cell-based
Procedure: Bacillus subtilis: Standard spore stocks (ATCC strain 6633) were purchased from Difco (#0453-36-0). Two-fold dilutions of polydiscamide A were prepared in 50 μL volumes of a suitable solvent using 96-well microtiter plates. In a separate 96-well plate, 35 μL volumes of Mueller-Hinton broth were placed in each well. The compound (5 μL) was then transferred to the broth. An inoculum of B. subtilis in the appropriate medium was added to give a cell density of 1000 cells/mL and a total volume of 50 μL. Plates were incubated at 37° C. overnight.

- IC50 against cultured human lung carcinoma cells (A549) [1]: 0.66 µg/mL (≈ 0.386 µM)
- IC50 against mouse leukemia cells (P388) [2]: 0.96 µg/mL (≈ 0.561 µM)
- MIC against B. subtilis (Bacillus subtilis): 3.1 µg/mL (≈ 1.81 µM)
Compound: CCC(C)(C)[C@H](NC(=O)[C@@H](NC(=O)[C@@H]1CCCN1C(=O)[C@H](Cc1ccc(Br)cc1)NC(=O)[C@H](C)NC=O)C(C)(C)C)C(=O)N[C@@H](Cc1c[nH]c2ccccc12)C(=O)N[C@@H](CCCNC(=N)N)C(=O)N[C@@H](CS(=O)(=O)O)C(=O)N[C@@H]1C(=O)N(C)[C@@H](CCC(N)=O)C(=O)N[C@@H](C(C)C)C(=O)N2CCC[C@H]2C(=O)N[C@@H](CC(N)=O)C(=O)O[C@@H]1C [polydiscamide A] (For-A[Phe(4-Br)]P[Tle][Ile(3-Me)]WR[Cya]T[NMeQ]VPN; ester 9-C)
